# Test results: patent US11045409B2, “Composition comprising a water-insoluble solid organic UV-screening agent and a compound capable of establishing hydrogen bonds” (L'OREAL, priority 2013, dated 2021)
# Test: Maximum solubility of UV-screening agents in compound (B)/isododecane mixtures
# Type: physicochemical
# Settings: sonication 45° C. 30 minutes, stable two months at room temperature
# Procedure: Solubility Test of the Screening Agents (A) in Mixtures of Compounds (B) and of Isododecane —
# 300 mg of water-insoluble solid UV-screening agent (A) or of UV-screening agent outside the invention were weighed out in a 10 ml flask, and compound (B) (as a mixture at 50% by weight in isododecane) was then added in increasing amounts until dissolution of the screening agent was complete. The dissolution was performed by sonication at 45° C. for 30 minutes, followed by cooling to room temperature. […] The maximum solubility was given in w/w %, which represents the mass percentage of UV-screening agent in the (B)/isododecane/UV-screening agent mixture. The maximum solubility of the solid screening agent (A) in a solution of isododecane alone (Bo) was also measured as reference.
# [1] = in compound (B1) at 50% by weight in isododecane
# [2] = in compound (B2) at 50% by weight in isododecane
# [3] = in isododecane alone (B0), reference
Compound,Maximum solubility of the UV-screening agent [1],Maximum solubility of the UV-screening agent [2],Maximum solubility of the UV-screening agent [3]
"Cc1cc(CC(C)C[Si](C)(O[Si](C)(C)C)O[Si](C)(C)C)c(O)c(-n2nc3ccccc3n2)c1 (stereo not drawn) [UV-screening agent No. 2, Drometrizole Trisiloxane]",30 w/w %,30 w/w %,5 w/w %
CCCCCCCCOC(=O)/C(C#N)=C\C=C\N(CC)CC [UV-screening agent No. 4],2.5 w/w %,5 w/w %,insoluble
"CCCCC(CC)COc1ccc(-c2nc(-c3ccc(OC)cc3)nc(-c3ccc(OCC(CC)CCCC)cc3O)n2)c(O)c1 (stereo not drawn) [UV-screening agent No. 8, 2,4-bis{[4-(2-ethylhexyloxy)-2-hydroxy]phenyl}-6-(4-methoxyphenyl)-1,3,5-triazine]",5 w/w %,5 w/w %,1 w/w %
"COc1ccc(C(=O)CC(=O)c2ccc(C(C)(C)C)cc2)cc1 [UV-screening agent No. 1, Butylmethoxydibenzoylmethane]",15 w/w %,15 w/w %,1 w/w %
CCCCCCCCOC(=O)/C(C#N)=C\C=C\N(CCO)CCO [UV-screening agent No. 3],5 w/w %,2.5 w/w %,insoluble
